Measured values: patent US10052320B2, “Substituted quinoxalines as FGFR kinase inhibitors” (ASTEX THERAPEUTICS LIMITED, priority 2011, dated 2018)
Read-outs that look alike come from different tables or passages of the source.

What was measured:
Type in all cases: cell-based
[1] = target: T1, Ba/F3-Flt3-transfected cells (Homo sapiens, UniProt P36888, cells depend on it, form not given); experiment: Ba/F3-Flt3 (minus IL3) cellular proliferation assay, Alamar Blue
T1 sequence (P36888 1-993): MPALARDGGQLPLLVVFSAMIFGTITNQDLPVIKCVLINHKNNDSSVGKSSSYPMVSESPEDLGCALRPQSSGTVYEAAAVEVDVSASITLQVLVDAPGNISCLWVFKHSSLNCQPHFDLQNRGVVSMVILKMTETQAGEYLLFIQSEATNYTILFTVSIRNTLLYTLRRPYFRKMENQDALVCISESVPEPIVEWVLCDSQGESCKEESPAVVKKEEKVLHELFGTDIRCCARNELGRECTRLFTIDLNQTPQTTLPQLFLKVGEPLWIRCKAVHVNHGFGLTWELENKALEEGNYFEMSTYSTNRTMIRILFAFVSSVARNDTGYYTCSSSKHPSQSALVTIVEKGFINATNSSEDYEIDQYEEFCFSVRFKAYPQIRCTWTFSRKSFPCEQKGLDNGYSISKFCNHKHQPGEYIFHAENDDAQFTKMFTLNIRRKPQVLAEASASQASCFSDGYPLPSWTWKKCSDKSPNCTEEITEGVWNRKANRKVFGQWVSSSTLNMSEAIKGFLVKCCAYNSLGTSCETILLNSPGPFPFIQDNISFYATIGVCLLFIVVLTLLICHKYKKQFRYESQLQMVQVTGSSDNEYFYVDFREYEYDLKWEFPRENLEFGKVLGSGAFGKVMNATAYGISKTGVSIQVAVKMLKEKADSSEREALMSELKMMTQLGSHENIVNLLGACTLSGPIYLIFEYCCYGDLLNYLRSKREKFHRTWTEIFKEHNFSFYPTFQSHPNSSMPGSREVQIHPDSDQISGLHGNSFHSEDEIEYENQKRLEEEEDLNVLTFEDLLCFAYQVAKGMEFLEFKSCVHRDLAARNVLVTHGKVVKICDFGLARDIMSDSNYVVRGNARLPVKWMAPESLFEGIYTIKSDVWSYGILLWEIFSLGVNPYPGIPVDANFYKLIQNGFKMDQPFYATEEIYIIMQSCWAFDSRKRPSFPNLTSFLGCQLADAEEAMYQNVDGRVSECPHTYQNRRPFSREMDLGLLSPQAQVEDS

[2] = target: Ba/F3-FGFR3-transfected cells (Homo sapiens, UniProt P22607); experiment: Ba/F3-FGFR3 (minus IL3) cellular proliferation assay, Alamar Blue; details: for BAF3-FGFR 3 (MIN IL3) 384 well pIC50: minus IL3, 384 well; for BAF3-FGFR 3 (MIN IL3) 96 well pIC50: minus IL3, 96 well
Sequence of Ba/F3-FGFR3-transfected cells (P22607 whole entry, change not shown): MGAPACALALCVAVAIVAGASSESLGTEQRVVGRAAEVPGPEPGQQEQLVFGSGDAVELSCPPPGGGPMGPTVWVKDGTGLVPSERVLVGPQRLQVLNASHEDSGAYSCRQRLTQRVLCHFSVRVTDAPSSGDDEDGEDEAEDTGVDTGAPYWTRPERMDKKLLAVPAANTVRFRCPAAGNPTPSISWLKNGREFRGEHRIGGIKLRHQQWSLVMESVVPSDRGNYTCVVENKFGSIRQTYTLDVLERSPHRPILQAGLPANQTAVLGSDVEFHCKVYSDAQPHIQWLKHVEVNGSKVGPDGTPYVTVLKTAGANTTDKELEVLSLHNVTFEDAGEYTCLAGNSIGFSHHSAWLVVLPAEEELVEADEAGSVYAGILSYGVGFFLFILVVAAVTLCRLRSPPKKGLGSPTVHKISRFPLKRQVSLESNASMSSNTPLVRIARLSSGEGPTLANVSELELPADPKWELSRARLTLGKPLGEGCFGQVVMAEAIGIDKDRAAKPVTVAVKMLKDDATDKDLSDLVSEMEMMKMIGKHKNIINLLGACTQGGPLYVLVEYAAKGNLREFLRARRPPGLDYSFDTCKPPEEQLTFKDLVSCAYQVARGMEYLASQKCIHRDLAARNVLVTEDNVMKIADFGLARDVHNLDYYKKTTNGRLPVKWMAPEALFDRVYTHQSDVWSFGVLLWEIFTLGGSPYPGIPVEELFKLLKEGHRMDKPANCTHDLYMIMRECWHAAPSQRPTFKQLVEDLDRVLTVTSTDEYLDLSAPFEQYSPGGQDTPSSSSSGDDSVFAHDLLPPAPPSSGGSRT
Outline: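 Proliferation read-out: Alamar Blue fluorescence (ex 540, em 590 nm) after 4 h with resazurin, following 24 h compound treatment of FGFR3-transfected Ba/F3 cells at 37 °C. Counterscreen run identically with 10 ng/ml murine IL3 added.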

[3] = system: Ba/F3-Flt3-transfected cells in the presence of 10 ng/ml murine IL3; experiment: Ba/F3-Flt3 (plus IL3) cellular proliferation counterscreen, Alamar Blue; details: Mus musculus, read-out: BAF3-FLT3 (PLUS IL3) 384 well pIC50 (converted)
[4] = target: Ba/F3-FGFR1-transfected cells (Homo sapiens, UniProt P11362); experiment: Ba/F3-FGFR1 (minus IL3) cellular proliferation assay, Alamar Blue; details: for BAF3-FGFR 1 (MIN IL3) 384 well pIC50: minus IL3, 384 well
Sequence of Ba/F3-FGFR1-transfected cells (P11362 whole entry, change not shown): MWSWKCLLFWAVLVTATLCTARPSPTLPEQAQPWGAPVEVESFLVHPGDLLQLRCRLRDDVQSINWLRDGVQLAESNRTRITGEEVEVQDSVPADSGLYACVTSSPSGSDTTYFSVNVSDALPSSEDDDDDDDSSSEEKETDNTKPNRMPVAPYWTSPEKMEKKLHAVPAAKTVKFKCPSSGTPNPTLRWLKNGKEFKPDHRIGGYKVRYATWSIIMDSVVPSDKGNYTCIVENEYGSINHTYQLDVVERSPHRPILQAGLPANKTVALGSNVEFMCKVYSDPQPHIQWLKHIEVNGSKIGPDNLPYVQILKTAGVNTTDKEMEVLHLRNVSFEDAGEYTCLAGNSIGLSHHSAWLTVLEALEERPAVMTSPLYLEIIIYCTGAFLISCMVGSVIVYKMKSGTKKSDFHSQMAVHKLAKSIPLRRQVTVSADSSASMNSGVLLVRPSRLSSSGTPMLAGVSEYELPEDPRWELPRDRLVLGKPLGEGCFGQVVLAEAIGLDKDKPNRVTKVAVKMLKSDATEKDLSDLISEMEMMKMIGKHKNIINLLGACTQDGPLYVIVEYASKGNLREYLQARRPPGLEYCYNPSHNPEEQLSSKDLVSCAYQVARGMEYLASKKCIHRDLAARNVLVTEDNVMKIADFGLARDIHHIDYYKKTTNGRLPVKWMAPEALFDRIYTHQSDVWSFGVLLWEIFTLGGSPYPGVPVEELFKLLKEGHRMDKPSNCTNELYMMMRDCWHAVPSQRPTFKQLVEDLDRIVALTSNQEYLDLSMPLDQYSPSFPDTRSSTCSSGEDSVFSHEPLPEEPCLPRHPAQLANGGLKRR
Outline: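 Readout: resazurin reduction, RFU at ex 540 nm/em 590 nm, measured after 4 h with Alamar Blue. This follows 24 h compound treatment (DMSO dilutions) at 37 °C, 5% CO2 in phenol red-free RPMI-1640 plus 10% FBS, at 20000 or 10000 cells/well depending on format.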

| BAF3-FLT3 (MIN IL3) 384 well pIC50 ([1]; minus IL3) | BAF3-FGFR 3 (MIN IL3) 384 well pIC50 [2] | BAF3-FGFR 1 (MIN IL3) 384 well pIC50 [4] | BAF3-FLT3 (MIN IL3) 96 well pIC50 ([1]; minus IL3, 96 well) | BAF3-FLT3 (MIN IL3) 384 well pIC50 ([1]; minus IL3, 384 well) | BAF3-FGFR 3 (MIN IL3) 96 well pIC50 [2] | BAF3-FGFR 1 (MIN IL3) 96 well pIC50 ([4]; minus IL3, 96 well) | BAF3-FLT3 (MIN IL3) 96 well pIC50 ([1]; minus IL3) | Structure (SMILES) | IC50 ([3]; plus 10 ng/ml murine IL3) [µM] | IC50 ([3]; plus IL3, 384 well) [µM] |
| --- | --- | --- | --- | --- | --- | --- | --- | --- | --- | --- |
| <5 | ~6.17 | 5.96 | – | – | – | – | – | COCC(CN(c1cc(OC)cc(OC)c1)c1ccc2ncc(-c3cccnc3)nc2c1)OC(C)=O (single isomer, unassigned) [Compound 52] | > 10 | – |
| <5 | 5.1 | <5 | – | – | – | – | – | COc1cc(OC)cc(N(CCCNCC(F)(F)F)c2ccc3ncc(-c4ccnc(F)c4)nc3c2)c1 [Compound 144] | > 10 | – |
| <5 | 5.5 | 6.41 | – | – | – | – | – | CO/N=C(\C)c1cnc2ccc(N(CCO)c3cc(OC)cc(OC)c3)cc2n1 [Compound 29] | > 10 | – |
| <5 | 5.32 | 5.32 | – | – | – | – | – | COc1cc(OC)cc(N(CCCO)c2ccc3ncc(-c4cccnc4F)nc3c2)c1 [Compound 149] | > 10 | – |
| – | ~5.26 | 5.16 | 5.59 | 5.05 | 5.77 | 5.4 | – | COc1cc(OC)cc(N(CC2CC2)c2ccc3ncc(-c4ccnc(N5CCN(C)CC5)c4)nc3c2)c1 [Compound 37] | – | 7.94 |
| <5 | <5 | <5 | – | – | <5 | – | <5 | COc1cc(OC)cc(N(CC2CC2)c2ccc3ncc(NC(=O)c4ccc(F)cc4)nc3c2)c1 [Compound 28] | > 10 | – |
| <5 | 6.57 | 5.99 | – | – | – | – | – | COc1cc(OC)cc(N(CCCNCC(F)(F)F)c2ccc3ncc(-c4ccn(C)c4)nc3c2)c1 [Compound 5] | > 10 | – |
| <5 | 5.19 | 5.62 | – | – | – | – | – | COc1cc(OC)cc(N(CCNC(C)C)c2ccc3ncc(C(=O)N4CCN(C)CC4)nc3c2)c1 [Compound 179] | > 10 | – |
| <5 | 5.89 | 5.62 | – | – | – | – | – | CNc1ccc(-c2cnc3ccc(N(CCCNCC(F)(F)F)c4cc(OC)cc(OC)c4)cc3n2)cn1 [Compound 129] | > 10 | – |
| <5 | 5.27 | 5.28 | – | – | – | – | – | COc1cc(OC)cc(N(CCO)c2ccc3ncc(C(=O)Nc4cnn(C)c4)nc3c2)c1 [Compound 184] | > 10 | – |
| – | <5 | <5 | ~5.12 | <5 | 5.02 | – | – | COc1cc(OC)cc(N(CC2CC2)c2ccc3ncc(N4CCN(C)CC4)nc3c2)c1 [Compound 64] | – | > 10 |
| 5 | 5.83 | 6.23 | – | – | – | – | – | COc1cc(OC)cc(N(CCNC(C)C)c2ccc3ncc(N4CCC(CN)CC4)nc3c2)c1 [Compound 67] | > 10 | – |
| ~5.25 | 6.4 | 6.56 | – | – | – | – | – | COc1cc(OC)cc(N(CCCNC(C)C)c2ccc3ncc(-c4ccnc(N)c4)nc3c2)c1 [Compound 143] | 6.61 | – |
